Measured values taken from US20200108070A2, “INHIBITORS OF FIBROBLAST GROWTH FACTOR RECEPTOR AND USE THEREOF” (Nanjing TransThera Biosciences Co. Ltd., priority 2016, published 2020).

How the values were obtained:
FGFR4 = FGFR4 (Homo sapiens, UniProt P22455); test: Enzymatic activity test (LabChip EZ Reader II / Caliper), FGFR4; assay type: biochemical; conditions: FGFR4(h), FAM-labelled polypeptide substrate and ATP, 30 min incubation; read-out: Inhibitory activity against FGFR (IC50) FGFR4
Protocol: (§1) Experimental Example 1: Enzymatic Activity Test of the Compounds of the Present Invention
(§2) Test substance: The compounds of the present invention, the structures of which are shown above.
(§3) Test Instrument: The LabChip EZ Reader II drug screening platform.
(§4) 1. Preparation for compound plate a) 96-well plates, 10 dose groups, 3-fold serial dilutions, added DMSO to each well, maximal concentration of 500 μM. b) 384-well plates, diluted with 1× kinase buffer (50 mM HEPES, pH 7.5; 0.0015% Brij-35; 2 mM DTT), each well containing 5× compound dissolved in 5 μL of 10% DMSO. The negative control well was 5 μL of 1× kinase buffer containing 10% DMSO. 2. Experimental procedure
(§5) […] in 1× kinase buffer were reacted with 2.5× enzyme solution at room temperature for 10 min, and then the FAM-labelled polypeptide substrate and ATP were added to initiate reaction. After incubation for 30 min, 25 μL of terminal solution (100 mM HEPES, pH 7.5; 0.015% Brij-35; 0.2% Coating Reagent #3; 50 mM EDTA) was added to terminate the reaction, and the final data were read by Caliper.

FGFR1 = FGFR1 (Homo sapiens, UniProt P11362); test: Enzymatic activity test (LabChip EZ Reader II / Caliper), FGFR1; assay type: biochemical; conditions: FGFR1(h), FAM-labelled polypeptide substrate and ATP, 30 min incubation; read-out: Inhibitory activity against FGFR (IC50) FGFR1
Sequence of FGFR1 (P11362 22-822): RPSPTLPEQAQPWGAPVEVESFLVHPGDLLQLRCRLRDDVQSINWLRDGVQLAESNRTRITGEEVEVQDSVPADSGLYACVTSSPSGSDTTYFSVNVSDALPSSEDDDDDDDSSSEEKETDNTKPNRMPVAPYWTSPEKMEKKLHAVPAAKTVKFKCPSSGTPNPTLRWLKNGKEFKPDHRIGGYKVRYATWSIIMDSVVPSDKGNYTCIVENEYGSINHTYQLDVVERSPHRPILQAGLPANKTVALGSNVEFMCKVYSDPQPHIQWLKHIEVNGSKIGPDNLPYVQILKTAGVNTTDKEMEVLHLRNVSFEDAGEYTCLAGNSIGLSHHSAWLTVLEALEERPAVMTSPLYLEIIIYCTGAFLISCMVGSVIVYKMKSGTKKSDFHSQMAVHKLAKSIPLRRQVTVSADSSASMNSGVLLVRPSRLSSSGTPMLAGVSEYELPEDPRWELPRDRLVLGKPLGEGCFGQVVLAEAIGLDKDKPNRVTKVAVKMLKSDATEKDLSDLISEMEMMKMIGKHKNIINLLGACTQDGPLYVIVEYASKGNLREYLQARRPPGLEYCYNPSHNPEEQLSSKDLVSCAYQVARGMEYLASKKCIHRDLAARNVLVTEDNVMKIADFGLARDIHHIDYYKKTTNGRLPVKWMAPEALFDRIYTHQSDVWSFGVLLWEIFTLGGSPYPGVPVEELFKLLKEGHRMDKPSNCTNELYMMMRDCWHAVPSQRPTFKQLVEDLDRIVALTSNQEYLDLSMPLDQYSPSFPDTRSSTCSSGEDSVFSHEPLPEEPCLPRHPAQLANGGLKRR
Protocol: as §1, §2, §3, §4, §5

RT112/84 = test: Cellular activity test (Cell titer-Glo), RT112/84; assay type: cell-based; conditions: Homo sapiens, RT112/84, bladder cancer cell with abnormal FGFR, 72 h, read-out: Inhibitory activity against cells (IC50) RT112/84
From the text: (§6) Experimental Example 2: Celluar Activity Test of the Compounds of the Present Invention
(§7) Hep3B is a cell with abnormal FGFR in hepatocellular carcinoma RT112/84 is a cell with abnormal FGFR in bladder cancer DMS114 is a cell with abnormal FGFR in small cell lung cancer AN3CA is a cell with abnormal FGFR in endometrial cancer SNU-16 is a cell with abnormal FGFR in gastric cancer
as §2
(§8) Test instrument: The Espire multi-function microplate reader.
(§9) Each cell line was seeded into a 96-well plate, and adherent cultured overnight. Then, the compounds at different concentrations (12 dose groups, 3× DMSO serial dilutions) were added to a final concentration of 0.17-30000 nM, with the final content of DMSO of 5‰. The negative control well was medium containing 5‰ DMSO. After incubation at 37° C., 5% CO2, 95% humidity for 72 h, the cultures would be test. 30 μL of Cell titer-Glo reagent was added to each well and incubated for 30 min at room temperature. The final data were read by Espire microplate reader.

AN3CA = test: Cellular activity test (Cell titer-Glo), AN3CA; assay type: cell-based; conditions: Homo sapiens, AN3-CA, endometrial cancer cell with abnormal FGFR, 72 h, read-out: Inhibitory activity against cells (IC50) AN3CA
From the text: as §6, §7, §2, §8, §9

DMS114 = test: Cellular activity test (Cell titer-Glo), DMS114; assay type: cell-based; conditions: Homo sapiens, DMS-114, DMS114, small cell lung cancer cell with abnormal FGFR, 72 h, read-out: Inhibitory activity against cells (IC50) DMS114
From the text: as §6, §7, §2, §8, §9

Hep3B = test: Cellular activity test (Cell titer-Glo), Hep3B; assay type: cell-based; conditions: Homo sapiens, hepatocellular carcinoma cell with abnormal FGFR, 72 h, read-out: Inhibitory activity against cells (IC50) Hep3B
From the text: as §6, §7, §2, §8, §9

FGFR3 = FGFR3 (Homo sapiens, UniProt P22607); test: Enzymatic activity test (LabChip EZ Reader II / Caliper), FGFR3; assay type: biochemical; conditions: FGFR3(h), FAM-labelled polypeptide substrate and ATP, 30 min incubation; read-out: Inhibitory activity against FGFR (IC50) FGFR3
Sequence of FGFR3 (P22607 23-806): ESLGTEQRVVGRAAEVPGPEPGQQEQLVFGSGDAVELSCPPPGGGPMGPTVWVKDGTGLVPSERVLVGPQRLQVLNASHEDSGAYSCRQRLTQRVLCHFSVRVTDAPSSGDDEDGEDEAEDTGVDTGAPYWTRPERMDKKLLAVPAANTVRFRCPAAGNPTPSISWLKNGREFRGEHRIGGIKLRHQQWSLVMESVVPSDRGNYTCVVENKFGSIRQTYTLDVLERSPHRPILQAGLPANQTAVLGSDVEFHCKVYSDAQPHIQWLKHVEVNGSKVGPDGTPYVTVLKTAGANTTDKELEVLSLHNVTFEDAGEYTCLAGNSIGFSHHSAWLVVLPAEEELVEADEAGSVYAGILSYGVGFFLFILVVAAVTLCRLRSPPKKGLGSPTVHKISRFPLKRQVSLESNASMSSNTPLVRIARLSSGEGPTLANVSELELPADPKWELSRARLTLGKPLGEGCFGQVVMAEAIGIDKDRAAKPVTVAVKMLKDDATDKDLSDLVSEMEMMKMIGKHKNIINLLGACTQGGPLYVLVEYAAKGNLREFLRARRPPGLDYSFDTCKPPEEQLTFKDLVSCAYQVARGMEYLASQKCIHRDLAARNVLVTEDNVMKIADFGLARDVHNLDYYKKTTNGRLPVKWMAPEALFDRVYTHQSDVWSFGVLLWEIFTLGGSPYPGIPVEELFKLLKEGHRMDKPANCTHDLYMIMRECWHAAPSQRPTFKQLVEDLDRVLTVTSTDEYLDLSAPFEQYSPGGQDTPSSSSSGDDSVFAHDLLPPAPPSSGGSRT
Protocol: as §1, §2, §3, §4, §5

FGFR2 = FGFR2 (Homo sapiens, UniProt P21802); test: Enzymatic activity test (LabChip EZ Reader II / Caliper), FGFR2; assay type: biochemical; conditions: FGFR2(h), FAM-labelled polypeptide substrate and ATP, 30 min incubation; read-out: Inhibitory activity against FGFR (IC50) FGFR2
Sequence of FGFR2 (P21802 22-821): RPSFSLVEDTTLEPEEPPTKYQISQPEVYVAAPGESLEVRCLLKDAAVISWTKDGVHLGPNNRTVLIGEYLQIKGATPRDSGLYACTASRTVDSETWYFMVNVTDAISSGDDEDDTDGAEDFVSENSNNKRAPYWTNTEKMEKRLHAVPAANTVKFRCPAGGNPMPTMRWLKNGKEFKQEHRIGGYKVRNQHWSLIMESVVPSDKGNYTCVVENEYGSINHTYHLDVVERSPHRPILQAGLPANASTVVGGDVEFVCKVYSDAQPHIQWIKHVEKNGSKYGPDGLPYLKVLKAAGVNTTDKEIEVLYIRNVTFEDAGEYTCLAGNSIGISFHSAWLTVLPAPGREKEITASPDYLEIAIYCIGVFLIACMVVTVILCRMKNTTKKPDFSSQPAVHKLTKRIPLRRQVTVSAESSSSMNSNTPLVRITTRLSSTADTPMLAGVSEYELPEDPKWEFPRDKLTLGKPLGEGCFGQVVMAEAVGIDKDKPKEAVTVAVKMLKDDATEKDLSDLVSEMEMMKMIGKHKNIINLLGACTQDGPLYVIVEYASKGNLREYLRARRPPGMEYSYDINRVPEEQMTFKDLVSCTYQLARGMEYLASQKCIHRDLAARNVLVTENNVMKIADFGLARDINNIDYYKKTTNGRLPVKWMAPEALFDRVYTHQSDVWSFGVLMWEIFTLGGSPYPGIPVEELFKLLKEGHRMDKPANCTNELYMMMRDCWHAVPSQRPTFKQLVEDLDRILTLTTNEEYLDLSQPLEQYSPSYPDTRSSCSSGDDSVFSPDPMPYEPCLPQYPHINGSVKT
Protocol: as §1, §2, §3, §4, §5

Sequence of FGFR4 (P22455 22-802): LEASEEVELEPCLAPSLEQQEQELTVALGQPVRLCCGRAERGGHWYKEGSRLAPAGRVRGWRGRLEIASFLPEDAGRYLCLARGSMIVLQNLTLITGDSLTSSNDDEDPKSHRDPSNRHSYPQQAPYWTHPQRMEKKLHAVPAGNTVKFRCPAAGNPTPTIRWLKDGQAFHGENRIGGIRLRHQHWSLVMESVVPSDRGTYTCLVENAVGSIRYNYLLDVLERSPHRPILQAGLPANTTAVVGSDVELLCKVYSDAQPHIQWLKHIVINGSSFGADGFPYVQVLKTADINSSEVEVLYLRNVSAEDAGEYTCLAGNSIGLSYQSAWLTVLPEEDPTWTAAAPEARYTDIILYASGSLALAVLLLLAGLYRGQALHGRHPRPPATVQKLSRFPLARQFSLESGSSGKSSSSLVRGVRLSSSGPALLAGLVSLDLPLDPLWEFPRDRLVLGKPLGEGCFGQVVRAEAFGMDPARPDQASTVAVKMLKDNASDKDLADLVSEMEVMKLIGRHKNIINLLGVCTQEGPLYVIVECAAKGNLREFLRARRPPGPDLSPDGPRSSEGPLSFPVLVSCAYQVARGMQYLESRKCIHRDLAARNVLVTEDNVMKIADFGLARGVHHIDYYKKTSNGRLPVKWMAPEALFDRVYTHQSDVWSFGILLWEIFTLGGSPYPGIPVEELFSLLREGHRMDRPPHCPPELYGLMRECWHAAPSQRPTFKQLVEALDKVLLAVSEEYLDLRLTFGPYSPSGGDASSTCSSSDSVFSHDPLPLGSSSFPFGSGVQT

Row | SMILES | IC50 (FGFR4) | IC50 (FGFR1) | IC50 (FGFR3) | IC50 (FGFR2) | IC50 (RT112/84) | IC50 (AN3CA) | IC50 (DMS114) | IC50 (Hep3B)
1 | C=CC(=O)N1C[C@@H]2C[C@H]1[C@@H]2Nc1ncc2cc(-c3c(Cl)c(OC)cc(OC)c3Cl)ccc2n1 (relative stereo) [Compound 11, 1-(trans-5-((6-(2,6-dichloro-3,5-dimethoxyphenyl)quinazolin-2-yl)amino)-2-azabicyclo[2.1.1]hexane-2-yl)prop-2-en-1-one] | 198 nM | 21 nM |  |  |  |  |  | 
2 | C=CC(=O)N1CC[C@@H](Nc2ncc3cc(-c4c(Cl)c(OC)cc(OC)c4Cl)ccc3n2)C1 [Compound 6, (R)-1-(3-((6-(2,6-dichloro-3,5-dimethoxyphenyl)quinazolin-2-yl)amino)pyrrolidin-1-yl)prop-2-en-1-one] | 780 nM | < 3 nM | 18 nM |  |  |  |  | 
3 | C=CC(=O)N1C[C@@H](Nc2ncc3cc(-c4c(Cl)c(OC)cc(OC)c4Cl)ccc3n2)C[C@H]1CC#N [Compound 27, 2-((2S,4S)-1-acryloyl-4-((6-(2,6-dichloro-3,5-dimethoxyphenyl)quinazolin-2-yl)amino)pyrrolidin-2-yl)acetonitrile] | 261 nM | 18 nM |  |  | 127 nM |  | 72 nM | 82 nM
4 | C=CC(=O)N1C[C@@H](Nc2ncc3cc(-c4c(Cl)c(OC)cc(OC)c4Cl)ccc3n2)C[C@H]1CNC(C)=O [Compound 32, N-(((2S,4S)-1-acryloyl-4-((6-(2,6-dichloro-3,5-dimethoxyphenyl)quinazolin-2-yl)amino)pyrrolidin-2-yl)methyl)acetamide] |  |  |  |  | 78 nM | 167 nM | 48 nM | 147 nM
5 | C=CC(=O)N1C[C@@H](Nc2ncc3cc(-c4c(Cl)c(OC)cc(OC)c4Cl)ccc3n2)C[C@H]1CNS(C)(=O)=O [Compound 33, N-(((2S,4S)-1-acryloyl-4-((6-(2,6-dichloro-3,5-dimethoxyphenyl)quinazolin-2-yl)amino)pyrrolidin-2-yl)methyl)methanesulfonamide] |  |  |  |  | 65 nM | 149 nM | 34 nM | 75.4 nM
6 | C=CC(=O)N1C[C@@H](Nc2ncc3cc(-c4c(Cl)c(OC)cc(OC)c4Cl)ccc3n2)C[C@H]1C(=O)N1CCC1 [Compound 35, 1-((2S,4S)-2-(azetidine-1-carbonyl)-4-((6-(2,6-dichloro-3,5-dimethoxyphenyl)quinazolin-2-yl)amino)pyrrolidin-1-yl)prop-2-en-1-one] |  |  |  |  | 60 nM | 112 nM | 52 nM | 95 nM
7 | C=CC(=O)N1C[C@@H](Nc2ncc3cc(-c4c(Cl)c(OC)cc(OC)c4Cl)ccc3n2)C[C@H]1C(=O)OCC [Compound 36, ethyl(2S,4S)-1-acryloyl-4-((6-(2,6-dichloro-3,5-dimethoxyphenyl)quinazolin-2-yl)amino)pyrrolidin-2-carboxylate] |  |  |  |  |  |  |  | 70.7 nM
8 | C=CC(=O)N1C[C@@H](Nc2ncc3cc(-c4c(Cl)c(OC)cc(OC)c4Cl)ccc3n2)C[C@H]1COC [Compound 53, 1-((2S,4S)-4-((6-(2,6-dichloro-3,5-dimethoxyphenyl)quinazolin-2-yl)amino)-2-(methoxymethyl)pyrrolidin-1-yl)prop-2-en-1-one] |  |  |  |  | 97 nM |  | 82 nM | 
9 | C=CC(=O)N1C[C@@H](Nc2ncc3cc(-c4c(Cl)c(OC)cc(OC)c4Cl)ccc3n2)C[C@H]1C(=O)N1CCCC1 [Compound 55, 1-((2S,4S)-4-((6-(2,6-dichloro-3,5-dimethoxyphenyl)quinazolin-2-yl)amino)-2-(pyrrolidin-1-carbonyl)pyrrolidin-1-yl)prop-2-en-1-one] |  |  |  |  | 54 nM | 66 nM | 21 nM | 
10 | CC#CC(=O)N1CCC(Nc2ncc3cc(-c4c(Cl)c(OC)cc(OC)c4Cl)ccc3n2)CC1 [Compound 63] | 196 nM | < 3 nM |  |  |  |  |  | 

The next lines start with results.

Row | IC50 (FGFR4) | IC50 (FGFR1) | IC50 (FGFR3) | IC50 (FGFR2) | SMILES | IC50 (RT112/84) | IC50 (AN3CA) | IC50 (DMS114) | IC50 (Hep3B)
11 | 103 nM | 3.7 nM |  |  | C=CC(=O)N1C[C@@H](Nc2ncc3cc(-c4c(Cl)c(OC)cc(OC)c4Cl)ccc3n2)C[C@H]1C(C)(C)O (stereo in doubt) [Compound 31, 1-((2R,4R)-4-((6-(2,6-dichloro-3,5-dimethoxyphenyl)quinazolin-2-yl)amino)-2-(2-hydroxypropyl-2-yl)pyrrolidin-1-yl)prop-2-en-1-one] | 70 nM | 117 nM | 25 nM | 46 nM
12 | 318 nM | 15 nM |  |  | C=CC(=O)N1C[C@@H](Nc2ncc3cc(-c4c(Cl)c(OC)cc(OC)c4Cl)ccc3n2)C2(CC2)C1 (stereo in doubt) [Compound 66] |  |  |  | 
13 | 153 nM |  |  |  | C=CC(=O)N1CCCC(Nc2ncc3cc(-c4c(Cl)c(OC)cc(OC)c4Cl)ccc3n2)C1 (stereo not shown) [Compound 1] |  |  |  | 
14 | 301 nM | < 3 nM | 8 nM |  | C=CC(=O)N1CC(Nc2ncc3cc(-c4c(Cl)c(OC)cc(OC)c4Cl)ccc3n2)C1 [Compound 9] |  |  |  | 
15 | 177 nM | < 3 nM | 7 nM |  | C=CC(=O)N1CCC(Nc2ncc3cc(-c4c(Cl)c(OC)cc(OC)c4Cl)ccc3n2)CC1 [Compound 10, 1-(4-((6-(2,6-dichloro-3,5-dimethoxyphenyl)quinazolin-2-yl)amino)piperidin-1-yl)prop-2-en-1-one] |  |  |  | 
16 | 330 nM | 8 nM |  |  | C=CC(=O)N1C[C@@H](Nc2ncc3cc(-c4c(Cl)c(OC)cc(OC)c4Cl)ccc3n2)C[C@H]1C [Compound 21, 1-((2R,4S)-4-((6-(2,6-dichloro-3,5-dimethoxyphenyl)quinazolin-2-yl)amino)-2-methylpyrrolidin-1-yl)propyl-2-en-1-one] | 54 nM | 176 nM |  | 
17 | 657 nM | 9 nM |  |  | C=CC(=O)N1C[C@@H](Nc2ncc3cc(-c4c(Cl)c(OC)cc(OC)c4Cl)ccc3n2)C[C@H]1C(=O)N(C)C [Compound 30, (2S,4S)-1-acryloyl-4-((6-(2,6-dichloro-3,5-dimethoxyphenyl)quinazolin-2-yl)amino)-N,N-dimethylpyrrolidin-2-carboxamide] | 117 nM |  |  | 77.5 nM
18 | 317 nM | 8.9 nM |  |  | C=CC(=O)N1C[C@@H](Nc2ncc3cc(-c4c(Cl)c(OC)cc(OC)c4Cl)ccc3n2)C[C@H]1C(=O)NC [Compound 37] |  |  |  | 
19 | 318 nM | < 3 nM |  |  | C=CC(=O)N1C[C@@H](O)[C@H](Nc2ncc3cc(-c4c(Cl)c(OC)cc(OC)c4Cl)ccc3n2)C1 [Compound 39] |  |  |  | 
20 |  | 7 nM |  |  | C=CC(=O)N1C[C@H](Nc2ncc3cc(-c4c(Cl)c(OC)cc(OC)c4Cl)ccc3n2)[C@@H](C)C1 [Compound 41] |  |  |  | 
21 |  | 5.8 nM | 22 nM | 8.2 nM | C=CC(=O)N1C[C@H](O)[C@H](Nc2ncc3cc(-c4c(Cl)c(OC)cc(OC)c4Cl)ccc3n2)C1 [Compound 46] |  |  |  | 
22 |  | 17 nM | 75 nM | 25 nM | C=CC(=O)N1C[C@@H](CC)[C@H](Nc2ncc3cc(-c4c(Cl)c(OC)cc(OC)c4Cl)ccc3n2)C1 [Compound 48] |  |  |  | 
23 | 268 nM | 6 nM |  |  | C=CC(=O)N1CCC(Nc2ncc3cc(-c4c(Cl)c(OC)cc(OC)c4Cl)ccc3n2)C(C)C1 (stereo not shown) [Compound 61] |  |  |  | 
24 |  | 7 nM |  |  | CC#CC(=O)N1CCC[C@H](Nc2ncc3cc(-c4c(Cl)c(OC)cc(OC)c4Cl)ccc3n2)C1 [Compound 62] |  |  |  | 
25 | 129 nM | 8 nM |  | 56 nM | C=CC(=O)N1CC(Nc2ncc3cc(-c4c(Cl)c(OC)cc(OC)c4Cl)ccc3n2)c2ccccc21 (stereo not shown) [Compound 67] |  |  |  | 
